Here are results for three compounds from patent US8420132B2, “Synergistic anti-inflammatory and antioxidant dietary supplement compositions” (Laila Impex, priority 2007, dated 2013).

Structures are written as SMILES.

Experiment [1] concerns Freund's Complete Adjuvant (FCA) challenged rats. Put plainly: Freund's Complete Adjuvant induced inflammation (paw volume) in rats. In kind it is in vivo. Particulars: 50 mg/kg daily in 1% CMC for 28 days, FCA on day 14, paw volumes at 28th day. On the procedure:
Test animals (rats, 200-300 g) of either sex were randomly distributed into different groups, with 5 animals in each group. Rats were supplemented daily with either demethylated curcuminoids (50 mg/kg) or enriched AKBA extract (50 mg/kg) or glucosamine (50 mg/kg), or reseveratrol (50 mg/kg), garlic extract (50 mg/kg) or ginger extract (50 mg/kg), or composition 7 (50 mg/kg) in 1% CMC for 28 days. The control group received same volume of vehicle (1% CMC); a standard drug, Prednisolone (10 mg/kg, orally) was used in the control treatment group. On the day 14, 100 μl of Freund's Complete Adjuvant (FCA) was injected subcutaneously in the sub planter region of the left hind paw. Blood samples were collected from each animal on the previous day of FCA challenge and at the day of termination of experiment i.e. 14 days after challenge. At the 28th day paw volumes were measured and after sacrificing the animals, liver tissues were excised and stored at −80° C. until further use.

Another experiment has as its target T1, 5-LOX (Homo sapiens, UniProt P09917).
T1 sequence (P09917 1-674): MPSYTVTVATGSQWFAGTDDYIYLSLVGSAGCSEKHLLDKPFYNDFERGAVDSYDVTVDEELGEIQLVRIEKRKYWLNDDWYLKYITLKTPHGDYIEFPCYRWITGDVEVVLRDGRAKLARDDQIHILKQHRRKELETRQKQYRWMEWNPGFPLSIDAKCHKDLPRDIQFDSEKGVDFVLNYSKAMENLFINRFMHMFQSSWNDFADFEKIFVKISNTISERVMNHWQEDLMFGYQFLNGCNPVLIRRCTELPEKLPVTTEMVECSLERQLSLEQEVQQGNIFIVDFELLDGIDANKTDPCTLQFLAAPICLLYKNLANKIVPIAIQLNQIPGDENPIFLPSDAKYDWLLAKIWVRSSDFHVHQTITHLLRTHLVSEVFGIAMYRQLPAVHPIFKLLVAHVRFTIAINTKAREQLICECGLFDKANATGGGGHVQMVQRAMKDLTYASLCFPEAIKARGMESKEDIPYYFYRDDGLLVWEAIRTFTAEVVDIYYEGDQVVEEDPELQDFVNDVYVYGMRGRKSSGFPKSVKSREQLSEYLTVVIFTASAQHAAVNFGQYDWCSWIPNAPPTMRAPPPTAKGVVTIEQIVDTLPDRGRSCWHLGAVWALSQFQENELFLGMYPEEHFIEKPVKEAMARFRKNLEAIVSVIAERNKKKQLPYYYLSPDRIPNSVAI
Particulars: of all the six boswellic acids; cited from earlier work.

`Oc1ccc(/C=C/c2cc(O)cc(O)c2)cc1` [Reseveratrol, reseveratrol]: the percent of inhibitions in experiment [1] amounted to 20.5%.

For `N[C@H]1C(O)O[C@H](CO)[C@@H](O)[C@@H]1O` (stereo partly drawn) [Glucosamine, glucosamine], the percent of inhibitions in experiment [1] is reported as 5.5%.

For `CC(=O)O[C@H]1CC[C@@]2(C)C(CC[C@]3(C)C2C(=O)C=C2C4[C@@H](C)[C@@H](C)CC[C@]4(C)CC[C@@]23C)[C@]1(C)C(=O)O` (stereo partly drawn) [AKBA, 3-O-acetyl-11-keto-β-boswellic acid], the “inhibitory activity against 5-LOX (in words)” value on 5-LOX is given as “most pronounced inhibitory activity”.
